Data from patent US20080188421A1, “Hunter-Killer Peptides and Methods of Use” (priority 2004, published 2008).

What was measured:
[1] = system: Kaposi's sarcoma cells; assay: Mitochondrial function in KS cells (WST-1 assay); format: cell-based; details: KS cells treated with peptides at 12 ug/mL; for mitochondrial function (remaining) in treated KS cell culture: function reduced to
Protocol: (§1) KS cells were plated in DMEM with 10% FBS in 96-well plates. Media was replaced with 100 uL of DMEM without serum and cells were treated with peptides at 12 ug/mL: The peptides utilized had two distinct disulfide links and are shown below. The other peptides utilized in the studies and methods for tumor studies are essentially as reported in Nature Medicine 5(9): 1032-1038, 1999, which is incorporated herein by reference in its entirety. Crude peptide was unpurified peptide composed monomer and dimer and other species-oxidized forms of the peptide.
In order to determine the decrease in mitochondrial function in tumor cells targeted with HK-1, which has the structure (CNGRC-GG-d(KLAKLAK)2)2 (SEQ ID NO: 9), Kaposi's sarcoma cells were treated with HK-1, with the corresponding monomeric homing conjugate CNGRC-GG-d(KLAKLAK)2 (SEQ ID NO: 20), with a crude preparation of the CNGRC homing peptide monomers, with an RGD peptide preparation, with a preparation including KLAKLAK (SEQ ID NO: 5) antimicrobial peptides, and with a CNGR control preparation.

[2] = system: Kaposi's sarcoma cells; assay: Viability of KS cells (Live/Dead assay); format: cell-based; details: KS cells treated with peptides at 12 ug/mL in DMEM without serum
Protocol: as §1

[3] = system: mitochondrial membranes; details: at a concentration of 10 μM; cited from earlier work

Substance	reduction in mitochondrial function [1] [%]	mitochondrial function (remaining) in treated KS cell culture [1]	cell death [2]	mitochondrial swelling [3]
(CNGRC-GG-d(KLAKLAK)2)2 [HK-1]	63	37%	~50%	
CNGRC-GG-d(KLAKLAK)2	34	over 65%	approximately 10%	
d(KLAKLAK)2				marked mitochondrial swelling
